What all share (assay): relative viability (nuclei count vs DMSO), 5 days (fraction); higher = more cells survive
Compound in assay [1]: O=C(O)C(Cc1ccccc1[N+](=O)[O-])=NNc1nc(-c2ccc(Cl)c(Cl)c2)cs1 (mixture of isomers) [4EGI-1] + CS(=O)(=O)N1CCN(Cc2cc3nc(-c4cccc5[nH]ncc45)nc(N4CCOCC4)c3s2)CC1 [Pictilisib] (partner 1 µM)
A digest of the protocol: (§1)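 Lung cancer cell lines were seeded in 1536-well plates and dosed by pin tool the next day, with either a single drug or a fixed anchor-drug dose combined with five library-drug doses (not always all listed) spaced in √10 steps. Five days later, one step fixed the cells and stained their nuclei (final 0.05% Triton X-100, 1% formaldehyde, 1 ug/ml Hoechst), and nuclei were counted on 4× images. Relative viability is the nuclei count in treated wells divided by the count in vehicle wells, and each value is the median of duplicate plates.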

Compound in assay [2]: O=C(O)C(Cc1ccccc1[N+](=O)[O-])=NNc1nc(-c2ccc(Cl)c(Cl)c2)cs1 (mixture of isomers) [4EGI-1] + CC(=O)Nc1cccc(-n2c(=O)n(C3CC3)c(=O)c3c(Nc4ccc(I)cc4F)n(C)c(=O)c(C)c32)c1 [Trametinib] (partner 0.02 µM)
A digest of the protocol:
as §1

Compound in assay [3]: O=C(O)C(Cc1ccccc1[N+](=O)[O-])=NNc1nc(-c2ccc(Cl)c(Cl)c2)cs1 (mixture of isomers) [4EGI-1] + O=C(CCCCCCC(=O)Nc1ccccc1)NO [Vorinostat] (partner 1 µM)
The procedure, abridged: as §1

Compound in assay [4]: CN1CCN(CC1)C2=CC(=C(C=C2)NC3=NC=C4C(=N3)N(C5=CC=CC=C5C(=O)N4C)C)OC [XMD8-85] + N=C(N)NC(=N)NCCc1ccccc1 [Phenformin] (partner 250 µM)
The procedure, abridged:
as §1

Take NCI-H2228: the relative viability in assay [1] (first compound 0.5 µM) was 0.444; in assay [1] (first compound 1.581 µM), 0.403; in assay [1] (first compound 5 µM), 0.464; in assay [1] (first compound 15.81 µM) it was 0.335; in assay [1] (first compound 50 µM) it was 0.298; in assay [2] (first compound 0.5 µM), 0.496. The relative viability in assay [2] (first compound 1.581 µM) stood at 0.499; in assay [2] (first compound 5 µM) it was 0.575; in assay [2] (first compound 15.81 µM) it was 0.456; in assay [2] (first compound 50 µM), 0.197; in assay [3] (first compound 0.5 µM), 0.749; in assay [3] (first compound 1.581 µM) it was 0.609. The relative viability in assay [3] (first compound 5 µM) was found to be 0.588; in assay [3] (first compound 15.81 µM), 0.539; in assay [3] (first compound 50 µM), 0.123; in assay [4] (first compound 0.08 µM), 0.235; in assay [4] (first compound 0.253 µM), 0.293; in assay [4] (first compound 0.8 µM), 0.34. The relative viability was found to be 0.334 in assay [4] (first compound 2.53 µM) and 0.261 in assay [4] (first compound 8 µM).
In the case of CAL-12T, the relative viability worked out at 0.431 in assay [1] (first compound 5 µM); 0.347 in assay [1] (first compound 15.81 µM); 0.225 in assay [1] (first compound 50 µM); 0.348 in assay [2] (first compound 0.5 µM); 0.358 in assay [2] (first compound 5 µM); 0.281 in assay [2] (first compound 15.81 µM). In addition, the relative viability in assay [2] (first compound 50 µM) was 0.191; in assay [3] (first compound 0.5 µM) it was 0.964; in assay [3] (first compound 5 µM) it was 0.95; in assay [3] (first compound 15.81 µM), 0.759; in assay [3] (first compound 50 µM) it was 0.67; in assay [4] (first compound 0.08 µM) it was 0.575. The relative viability was 0.528 in assay [4] (first compound 0.253 µM), 0.537 in assay [4] (first compound 0.8 µM), 0.517 in assay [4] (first compound 2.53 µM) and 0.369 in assay [4] (first compound 8 µM).
Consider NCI-H441, for which the relative viability in assay [1] (first compound 0.5 µM) stood at 0.517; in assay [1] (first compound 1.581 µM) it was 0.414; in assay [1] (first compound 5 µM), 0.455; in assay [1] (first compound 15.81 µM), 0.447; in assay [1] (first compound 50 µM) it was 0.19; in assay [2] (first compound 0.5 µM), 0.613. Further, the relative viability in assay [2] (first compound 1.581 µM) is 0.471; in assay [2] (first compound 5 µM), 0.449; in assay [2] (first compound 15.81 µM), 0.428; in assay [2] (first compound 50 µM) it was 0.127; in assay [3] (first compound 0.5 µM), 0.727; in assay [3] (first compound 1.581 µM), 0.909. The relative viability in assay [3] (first compound 5 µM) turned out to be 0.75; in assay [3] (first compound 15.81 µM), 0.641; in assay [3] (first compound 50 µM) it was 0.414; in assay [4] (first compound 0.08 µM) it was 0.954; in assay [4] (first compound 0.253 µM) it was 0.689; in assay [4] (first compound 0.8 µM) it was 0.81. Further, the relative viability in assay [4] (first compound 2.53 µM) was 1.12; in assay [4] (first compound 8 µM) it was 0.571.
As to NCI-H1437, the relative viability is 0.532 in assay [1] (first compound 0.5 µM); 0.478 in assay [1] (first compound 1.581 µM); 0.533 in assay [1] (first compound 5 µM); 0.256 in assay [1] (first compound 15.81 µM); 0.126 in assay [1] (first compound 50 µM); 0.608 in assay [2] (first compound 0.5 µM). In addition, the relative viability came to 0.537 in assay [2] (first compound 1.581 µM); 0.549 in assay [2] (first compound 5 µM); 0.337 in assay [2] (first compound 15.81 µM); 0.207 in assay [2] (first compound 50 µM); 0.975 in assay [3] (first compound 0.5 µM); 0.805 in assay [3] (first compound 1.581 µM). For the same cell line, the relative viability in assay [3] (first compound 5 µM) is 0.776; in assay [3] (first compound 15.81 µM), 0.418; in assay [3] (first compound 50 µM) it was 0.206; in assay [4] (first compound 0.253 µM), 0.299; in assay [4] (first compound 0.8 µM), 0.338; in assay [4] (first compound 2.53 µM) it was 0.329. Further, the relative viability in assay [4] (first compound 8 µM) came to 0.268.

For the origin of these results see the supplement of paper PMC10307832.
